Experimental data taken from BigSolDB 2.1.

COC1=CC(=O)C[C@@H](C)[C@]12Oc1c(Cl)c(OC)cc(OC)c1C2=O
solubility (mole fraction)
Details	278.15 K	283.15 K	288.15 K	293.15 K	298.15 K	303.15 K	308.15 K	313.15 K	318.15 K	323.15 K
in DMF	0.00484	0.00541	0.0061	0.00703	0.00811	0.00933	0.0106	0.012	0.0136	0.0155
in NMP	0.0324	0.0344	0.0369	0.0394	0.0425	0.045	0.0479	0.0511	0.0541	0.0573
in acetonitrile	0.00331	0.00369	0.00418	0.00473	0.00536	0.00611	0.00697	0.00795	0.00899	0.0102
in ethanol	0.000218	0.000255	0.000303	0.00037	0.000446	0.000542	0.00065	0.000779	0.000928	0.00112
in methanol	0.000246	0.00028	0.000332	0.000413	0.000517	0.000632	0.00077	0.000929	0.00111	0.00133
in water	1.93e-07	2.5e-07	3.08e-07	3.86e-07	4.7e-07	5.7e-07	7.18e-07	8.91e-07	1.1e-06	1.36e-06
